Data taken from US12441704B2, “Compounds active towards nuclear receptors” (NUEVOLUTION A/S, priority 2019, dated 2025).
Read-outs that look alike come from different tables or passages of the source.

Key:
[1] = test system: Collagen-induced arthritis; experiment: Collagen-induced arthritis (CIA) study; format: in vivo; conditions: 3 mpk p.o. b.i.d.; DBA/1J mice
Method: Collagen-induced arthritis is an animal model of rheumatoid arthritis used to evaluate the efficacy of test compounds. CIA was induced at Washington Biotechnology Inc. (Baltimore) in male DBA/1J mice (Jackson Laboratories) by subcutaneous injection at the base of the tail with 50 μl of a bovine collagen/complete Freund's adjuvant emulsion. After 21 days, the mice were further boosted by a further subcutaneous injection of 50 μl of a collagen/incomplete Freund's adjuvant emulsion. For treatment, compound or vehicle (2% DMSO, 10% HP-β-CD in MilliQ water) was given orally twice daily at various doses selected from 3, 10, 30 mg/kg, beginning at the day of CIA induction (Prophylactic setting), or after disease initiation (at day 27, therapeutic setting). Treatment lasted until day 41, and the animals were scored three times weekly. Each paw was scored and the sum of all four scores was recorded as the Arthritic Index (AI). The maximum possible AI was 16. 0=no visible effects of arthritis; 1=edema and/or erythema of one digit; 2=edema and/or erythema of 2 joints; 3=edema and/or erythema of more than 2 joints; 4=severe arthritis of the entire paw and digits including limb deformation and ankylosis of the joint. The Arthritis Index for each treatment can be expressed as the mean score for each treatment group+/−S.E.M.

[2] = test system: plasma IL-17A; experiment: In vivo IL-17A induction in anti-CD3 model in mice; conditions: oral gavage twice daily day 0 to day 3, C57BL/6JRj mice
Method: Male C57BL/6JRj mice (7 week old) were purchased from Janvier Labs and housed at the animal facilities of Almirall throughout the study. Animals were allowed to condition for 5 days in their new environment at 22° C.±2° C., 55%±10% relative humidity and 12 h: 12 h light:dark cycles. Animals were housed in polycarbonate cages, with free access to water and non-purified stock diet (2014 Teklad Global 14% Protein Rodent Maintenance Diet, Envigo) during the full course of the studies. Care of animals was undertaken in compliance with the European Committee Directive 2010/63/EU, and the Catalan and Spanish law. All procedures were performed according to the ARRIVE guidelines (Animal Research: Reporting of In Vivo Experiments) and with approval from the Animal Experimentation Ethical Committee of Almirall (Barcelona, Spain).
Mice were injected intraperitoneally with 7.5 μg of anti-CD3e (Clone 145-2C11 from Pharmingen BD) at 0 h (day 0) and […] (day 3) time-points. The non-induced-group were injected with PBS instead of anti-CD3e. At study completion (4 h after anti-CD3e injection), animals were anaesthetized with isofluorane (Baxter) and 0.5-1 mL blood samples were drawn by intracardiac puncture in heparinized tubes. Plasma samples were stored at −80° C. for subsequent analysis.
Test compounds were freshly suspended in sterile 0.5% methylcellulose 0.1% tween-80 solution (10 mL/kg body weight). […]
Plasma levels of IL-17A were measured by ELISA (R&D Systems) according to the manufacturer's instruction. Results were calculated as the percentage of reduction of plasma IL-17A versus the difference between non-induced and anti-CD3e induced groups through the formula: inhibition=100*[1−[(x−mean non-induced)/(mean control vehicle−mean non-induced)]]. The IL-17A inhibition for each treatment can be expressed as the mean for each treatment group±S.E.M. Statistical analysis of data were conducted with one-way ANOVA followed by Dunnett's multiple comparisons test when appropriate. […]

[3] = test system: IL-17A secretion in activated PBMCs; experiment: IL-17A secretion in activated PBMCs; format: cell-based, human; conditions: human PBMCs stimulated with CD3/CD28 Dynabeads for 48 h, absolute IC50
Summary of the method: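 Human PBMCs from healthy donors, 40,000 cells/well, were preincubated 30 min with compound in 10-point 5-fold dilutions (0.1% DMSO), then stimulated 48 h at 37° C with CD3/CD28 beads (1:1). Supernatant IL-17A was read by bead immunoassay on a flow cytometer. Inhibition was normalized to activated DMSO (top) and GNE09461 10 μM (basal).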

[4] = target: T1, RORγ ligand-binding domain fused to Gal4 (Homo sapiens, UniProt P51449); experiment: RORγ Reporter Assay (Gal4); format: cell-based
T1 construct: Gal4 (galactose-responsive transcription factor); expressed in transfected cells; host or cells: HEK293
T1 sequence (P51449 269-508 limits assumed): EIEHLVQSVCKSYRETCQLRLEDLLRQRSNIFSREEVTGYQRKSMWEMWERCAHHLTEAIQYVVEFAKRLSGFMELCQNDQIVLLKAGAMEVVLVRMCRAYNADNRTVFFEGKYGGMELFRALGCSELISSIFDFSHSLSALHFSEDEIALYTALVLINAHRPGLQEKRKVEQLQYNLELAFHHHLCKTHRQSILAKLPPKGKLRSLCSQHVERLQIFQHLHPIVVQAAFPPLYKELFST
Summary of the method: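 HEK293 cells transiently co-transfected with the Gal4-fused RORγ LBD and a UAS-luciferase reporter were exposed to compounds for 24 h at 37 °C (0.1% DMSO final). Luminescence was read, and percent reduction of RORγ activity was calculated relative to vehicle-average RLU.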

[5] = target: T1, RORγ ligand-binding domain fused to Gal4; conditions: cited from earlier work
[6] = comparison compounds of WO2016020288, source marked WO2016020288
[7] = RORγ Gal4 assay EC50, Examples in <100 range, Examples of WO2016020288, based on % inhibition at 0.1 and/or 1 uM (Table 5 c, footnote 4)
[8] = RORγ Gal4 assay EC50, Examples in <500 range, Examples of WO2016020288, based on % inhibition at 0.1 and/or 1 uM (Table 5 c, footnote 5)
[9] = comparison examples of WO2016020288 (footnote 1)
[10] = HEK293 cells co-transfected with RORγ LBD-Gal4 and luciferase reporter, 24 h incubation, absolute EC50, read-out: EC50

SMILES | EC50 [4, 7] [nM] | EC50 [4, 8] [nM] | EC50 [4, 10] [nM] | IC50 ([3]; Homo sapiens, PBMC, 48 h) [nM] | other results
NC(=O)CN1CC[C@@H](CNc2ncnc(N(Cc3ccc(C(F)(F)F)cc3)C3CC3)c2F)[C@H](O)C1 (single isomer, unassigned) [Example A7-01-1] |  |  |  | 6.3 | reduction in AI (Arthritic Index) as compared to the anti-IL-17A antibody [1]: 74%; Inhibition of IL-17A (%) at 3 mg/kg [2]: 80%; EC50 ([4]; compounds of the present disclosure, source: Table 2 herein, read-out: Gal4 assay EC50): < 100 nM
CCN(Cc1ccc(C(F)(F)F)cc1)c1ncnc(NC[C@]2(O)CCN(CC(N)=O)C[C@H]2O)c1F (single isomer, unassigned) [Example D5-01-1-1] |  |  |  |  | Inhibition of IL-17A (%) at 3 mg/kg [2]: 92%; IC50 [3]: 1.9 nM
CCN(Cc1ccc(C(F)(F)F)cc1F)c1ncnc(NC[C@]2(O)CCN(CC(N)=O)C[C@H]2O)c1F (single isomer, unassigned) [Example D5-03-1-1] |  |  |  | 3 | Inhibition of IL-17A (%) at 3 mg/kg [2]: 93%
NC(=O)CN1CCC(CO)(CNc2ncnc(N(Cc3ccc(C(F)(F)F)cc3)C3CC3)c2F)CC1 [Example A7-51, 2-(4-(((6-(cyclopropyl(4-(trifluoromethyl)benzyl)amino)-5-fluoropyrimidin-4-yl)amino)methyl)-4-(hydroxymethyl)piperidin-1-yl)acetamide] |  |  | 2.4 | 7.3 | 
NC(=O)CN1CCC(CO)(CNc2ncnc(N(Cc3ccc(C(F)(F)F)cn3)C3CC3)c2F)CC1 [Example A7-52, 2-(4-(((6-(cyclopropyl((5-(trifluoromethyl)pyridin-2-yl)methyl)amino)-5-fluoropyrimidin-4-yl)amino)methyl)-4-(hydroxymethyl)piperidin-1-yl)acetamide] |  |  | 42 | 130 | EC50 ([4]; compounds of the present disclosure, value from Table 2 herein, read-out: Gal4 assay EC50): < 100 nM
NC(=O)C(CO)N1CCC(O)(CNc2ncnc(N(Cc3ccc(C(F)(F)F)cc3)C3CC3)c2F)CC1 (stereo not drawn) [Example A7-68, 2-(4-(((6-(cyclopropyl(4-(trifluoromethyl)benzyl)amino)-5-fluoropyrimidin-4-yl)amino)methyl)-4-hydroxypiperidin-1-yl)-3-hydroxypropanamide] |  |  | 20 | 21 | 
NC(=O)C(CO)N1CCC(CO)(CNc2ncnc(N(Cc3ccc(C(F)(F)F)cc3)C3CC3)c2F)CC1 (stereo not drawn) [Example A7-70, 2-(4-(((6-(cyclopropyl(4-(trifluoromethyl)benzyl)amino)-5-fluoropyrimidin-4-yl)amino)methyl)-4-(hydroxymethyl)piperidin-1-yl)-3-hydroxypropanamide] |  |  | 8.8 | 12 | 
NC(=O)CN1CCC(CNc2ncnc(N(Cc3ccc(C(F)(F)F)cc3)C3CC3)c2F)(c2ncon2)CC1 [Example A7-81, 2-(4-(((6-(Cyclopropyl(4-(trifluoromethyl)benzyl)amino)-5-fluoropyrimidin-4-yl)amino)methyl)-4-(1,2,4-oxadiazol-3-yl)piperidin-1-yl)acetamide] |  |  | 5.3 | 120 | 
NC(=O)CN1CCC(CNc2ncnc(N(Cc3ccc(C(F)(F)F)cc3)C3CC3)c2F)(c2nnco2)CC1 [Example A7-82, 2-(4-(((6-(Cyclopropyl(4-(trifluoromethyl)benzyl)amino)-5-fluoropyrimidin-4-yl)amino)methyl)-4-(1,3,4-oxadiazol-2-yl)piperidin-1-yl)acetamide] |  |  | 8.1 | 150 | 
NC(=O)CN1CCC(CNc2ncnc(N(Cc3ccc(C(F)(F)F)cc3)C3CC3)c2F)(c2cnn[nH]2)CC1 [Example A7-85, 2-(4-(((6-(Cyclopropyl(4-(trifluoromethyl)benzyl)amino)-5-fluoropyrimidin-4-yl)amino)methyl)-4-(1H-1,2,3-triazol-5-yl)piperidin-1-yl)acetamide] |  |  | 7.9 | 120 | 

Further lines, with some results ahead:

EC50 [4, 7] [nM] | EC50 [4, 8] [nM] | EC50 [4, 10] [nM] | SMILES | IC50 ([3]; Homo sapiens, PBMC, 48 h) [nM] | other results
< 100 | < 500 |  | NC(=O)Cc1ccc(CNc2ncnc(N(Cc3ccc(C(F)(F)F)cc3)C3CC3)c2F)cc1 [Example A2, reference compound] |  | EC50 [5, 6]: < 100 nM
< 100 | < 500 |  | CC(c1ccc(C(F)(F)F)cc1)N(c1ncnc(NCc2ccc(CC(N)=O)cc2)c1F)C1CC1 (stereo not drawn) [Example A3, reference compound] |  | EC50 [5, 9]: < 100 nM
< 100 | < 500 |  | CS(=O)(=O)N1CCC(CNc2ncnc(N(Cc3ccc(C(F)(F)F)cc3)C3CC3)c2F)CC1 [Example A7, reference compound] |  | EC50 [5, 6]: < 100 nM
 | < 500 |  | CC(=O)N1CCC(CNc2ncnc(N(Cc3ccc(C(F)(F)F)cc3)C3CC3)c2F)CC1 [Example A11, reference compound] |  | EC50 [5, 6]: < 100 nM
< 100 | < 500 |  | OC1(CNc2ncnc(N(Cc3ccc(C(F)(F)F)cc3)C3CC3)c2F)CCC(F)(F)CC1 [Example A44, reference compound] |  | EC50 [5, 6]: < 100 nM
< 100 | < 500 |  | NC(=O)Cc1ccc(CNc2ncnc(N(Cc3ccc(C(F)(F)F)nc3)C3CC3)c2F)cc1 [Example A83, reference compound] |  | EC50 [5, 9]: < 100 nM
< 100 | < 500 |  | NC(=O)Cc1ccc(CNc2ncnc(N(Cc3ccc(C(F)(F)F)cn3)C3CC3)c2F)cc1 [Example A85, reference compound] |  | EC50 [5, 9]: < 100 nM
 | < 500 |  | NC(=O)CC1CC(CNc2ncnc(N(Cc3ccc(C(F)(F)F)cc3)C3CC3)c2F)C1 (stereo not drawn) [Example A95, reference compound] |  | EC50 [5, 6]: < 500 nM
< 100 | < 500 |  | NC(=O)Cc1ccc(CNc2ncnc(N(Cc3cnc(C(F)(F)F)nc3)C3CC3)c2F)cc1 [Example A98, reference compound] |  | EC50 [5, 9]: < 100 nM
< 100 | < 500 |  | NC(=O)Cc1ccc(CNc2ncnc(N(Cc3cccc(OC(F)(F)F)c3)C3CC3)c2F)cc1 [Example A102, reference compound] |  | EC50 [5, 9]: < 100 nM
< 100 | < 500 |  | CN(Cc1cccc(OC(F)(F)F)c1)c1ncnc(NCc2ccc(CC(N)=O)cc2)c1F [Example A128, reference compound] |  | EC50 [5, 9]: < 100 nM
